According to US6583265B1, “Cyclosporins” (C-Chem AG, priority 1998, dated 2003):
Values after ≈ are worked out from the molar mass of the structure shown. Where two headings read alike, the source gives them in different places. Numbered stars: 1 amine (or outer) side, 2 acyl side, 3 side chain; on linkers, the order of the positions; unused ones are H or OH. Square brackets hold non-standard residues; d marks the D form. Peptide text beside a SMILES is read from it. MeBmt = C/C=C/C[C@@H](C)[C@@H](O)[C@H](NC)C(=O)O; NMeLeu(4-OH) = CN[C@@H](CC(C)(C)O)C(=O)O; X2 = CN(C(Sc1ccccn1)C(=O)[*:2])[*:1]; NMeL = CN[C@@H](CC(C)C)C(=O)O; NMeV = CN[C@H](C(=O)O)C(C)C; Abu = CC[C@H](N)C(=O)O

Columns and labels:
[1] = Antiinflammatory activity, adjuvent arthritis test (Pearson); assay type: in vivo; conditions: oral, solutions in olive oil and tween 80
Description: The antiinflammatory activity of test compounds was determined by the adjuvent arthritis test described by Pearson, “Arthr. Rheum”, 1959, Vol. 2., 440. Test compounds were administered orally as solutions in olive oil and tween 80.

cyclophilin = cyclophilin (Homo sapiens, UniProt P62937); assay: Test for cyclophilin binding (Fliri); conditions: ratio to cyclosporin A
Chain of cyclophilin (P62937 whole entry): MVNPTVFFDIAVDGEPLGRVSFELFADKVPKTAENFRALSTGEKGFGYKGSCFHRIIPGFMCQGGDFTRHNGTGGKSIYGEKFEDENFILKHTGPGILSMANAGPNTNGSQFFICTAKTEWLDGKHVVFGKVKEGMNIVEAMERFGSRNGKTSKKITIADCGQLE
Source text: To measure the affinity and inhibition of test compounds for cyclophilin, the test described by H. Fliri in “Antibiotics and Antiviral compounds”, 1993, Verlag Chemie, K.Krohn, H. A. Kirst, and H. Maag, eds., p 229-240 was used.

HIV = assay type: cell-based
Source text: The inhibitory effect of test compounds on the HIV-induced cytopathic effect on the MT4 T cell line as described by R. Pauwels in J. Virol. Methods, 1988, Vol. 20, pp 309-321 was used.

[2] = test system: T. gondii tachyzoites, strain RH; assay type: cell-based, Toxoplasma gondii; conditions: 72 h
Description: Using microliter plates, T. gondii tachyzoites, strain RH were co-incubated with fibroblasts (MCR5, Bio-Merieux) for 72 hrs in the presence and absence of test compounds T. gondii was quantified using an ELISA. The activities of the test compounds are as follows: […]

| SMILES | ED50, dose effective in reducing the joint swelling by 50% [1] [mg/kg] | Relative IC50, i.e. IC50 (cyclosporin A)/IC50 (test compound) (cyclophilin) | IC50 (HIV) [µg/mL] | IC50 (HIV; HIV-induced cytopathic effect on MT4 T cell line) [µg/mL] | Activity against T. gondii (IC50) [2] [µg/mL] |
| --- | --- | --- | --- | --- | --- |
| C/C=C/C[C@@H](C)[C@@H](O)[C@H]1C(=O)N[C@@H](CC)C(=O)N(C)C(Sc2ccccn2)C(=O)N(C)[C@@H](CC(C)C)C(=O)N[C@@H](C(C)C)C(=O)N(C)[C@@H](CC(C)C)C(=O)N[C@@H](C)C(=O)N[C@H](C)C(=O)N(C)[C@@H](CC(C)C)C(=O)N(C)[C@@H](CC(C)C)C(=O)N(C)[C@@H](C(C)C)C(=O)N1C (stereo partly drawn) [Example 1, 3-(Pyridyl-2-thio)-cyclosporin] (HELM PEPTIDE1{[C/C=C/C[C@@H](C)[C@@H](O)[C@@H](C(=O)[*:2])N(C)[*:1]].[Abu].[CN(C(Sc1ccccn1)C(=O)[*:2])[*:1]].[meL].V.[meL].A.[dA].[meL].[meL].[meV]}$PEPTIDE1,PEPTIDE1,1:R1-11:R2$$$V2.0) | 25 | 0.2 | 0.45 (≈ 0.343 µM) | – | – |
| C/C=C/C[C@@H](C)[C@@H](O)[C@H]1C(=O)N[C@@H](CC)C(=O)N(C)C(Sc2ccncc2)C(=O)N(C)[C@@H](CC(C)C)C(=O)N[C@@H](C(C)C)C(=O)N(C)[C@@H](CC(C)C)C(=O)N[C@@H](C)C(=O)N[C@H](C)C(=O)N(C)[C@@H](CC(C)C)C(=O)N(C)[C@@H](CC(C)C)C(=O)N(C)[C@@H](C(C)C)C(=O)N1C (stereo partly drawn) [Example 2, 3-(Pyridyl-4-thio)-cyclosporin A] (HELM PEPTIDE1{[C/C=C/C[C@@H](C)[C@@H](O)[C@@H](C(=O)[*:2])N(C)[*:1]].[Abu].[CN(C(Sc1ccncc1)C(=O)[*:2])[*:1]].[meL].V.[meL].A.[dA].[meL].[meL].[meV]}$PEPTIDE1,PEPTIDE1,1:R1-11:R2$$$V2.0) | 25 | 0.2 | 1 (≈ 0.762 µM) | – | – |
| C/C=C/C[C@@H](C)[C@@H](O)[C@H]1C(=O)N[C@@H](CC)C(=O)N(C)C(Sc2ccccn2)C(=O)N(C)[C@@H](CC(C)(C)O)C(=O)N[C@@H](C(C)C)C(=O)N(C)[C@@H](CC(C)C)C(=O)N[C@@H](C)C(=O)N[C@H](C)C(=O)N(C)[C@@H](CC(C)C)C(=O)N(C)[C@@H](CC(C)C)C(=O)N(C)[C@@H](C(C)C)C(=O)N1C (stereo partly drawn) [Example 3, 3-(Pyridyl-2-thio)-4-(γ-hydroxy-methylleucine)-cyclosporin] (cyclo([MeBmt][Abu][X2][NMeLeu(4-OH)]V[NMeL]A[dA][NMeL][NMeL][NMeV])) | 25 | 0.2 | 1 (≈ 0.753 µM) | – | – |
| C/C=C/C[C@@H](C)[C@@H](O)[C@H]1C(=O)N[C@@H](CC)C(=O)N(C)C(Sc2ccccn2)C(=O)N(C)[C@@H](C(C)C)C(=O)N[C@@H](C(C)C)C(=O)N(C)[C@@H](CC(C)C)C(=O)N[C@@H](C)C(=O)N[C@H](C)C(=O)N(C)[C@@H](CC(C)C)C(=O)N(C)[C@@H](CC(C)C)C(=O)N(C)[C@@H](C(C)C)C(=O)N1C (stereo partly drawn) [Example 4, 3-(Pyridyl-2-thio)-4-methylvaline-cyclosporin] (HELM PEPTIDE1{[C/C=C/C[C@@H](C)[C@@H](O)[C@@H](C(=O)[*:2])N(C)[*:1]].[Abu].[CN(C(Sc1ccccn1)C(=O)[*:2])[*:1]].[meV].V.[meL].A.[dA].[meL].[meL].[meV]}$PEPTIDE1,PEPTIDE1,1:R1-11:R2$$$V2.0) | 25 | 0.2 | 1 (≈ 0.771 µM) | – | – |
| C/C=C/C[C@@H](C)[C@@H](O)[C@H]1C(=O)N[C@@H](CCC)C(=O)N(C)C(Sc2ccccn2)C(=O)N(C)[C@@H](CC(C)C)C(=O)N[C@@H](C(C)C)C(=O)N(C)[C@@H](CC(C)C)C(=O)N[C@@H](C)C(=O)N[C@H](C)C(=O)N(C)[C@@H](CC(C)C)C(=O)N(C)[C@@H](CC(C)C)C(=O)N(C)[C@@H](C(C)C)C(=O)N1C (stereo partly drawn) [Example 5, 3-(Pyridyl-2-thio)-2-norvaline-cyclosporin] (HELM PEPTIDE1{[C/C=C/C[C@@H](C)[C@@H](O)[C@@H](C(=O)[*:2])N(C)[*:1]].[Nva].[CN(C(Sc1ccccn1)C(=O)[*:2])[*:1]].[meL].V.[meL].A.[dA].[meL].[meL].[meV]}$PEPTIDE1,PEPTIDE1,1:R1-11:R2$$$V2.0) | 25 | 0.2 | 1 (≈ 0.754 µM) | – | – |
| C/C=C/C[C@@H](C)[C@@H](O)[C@H]1C(=O)N[C@@H](C(C)C)C(=O)N(C)C(Sc2ccccn2)C(=O)N(C)[C@@H](CC(C)C)C(=O)N[C@@H](C(C)C)C(=O)N(C)[C@@H](CC(C)C)C(=O)N[C@@H](C)C(=O)N[C@H](C)C(=O)N(C)[C@@H](CC(C)C)C(=O)N(C)[C@@H](CC(C)C)C(=O)N(C)[C@@H](C(C)C)C(=O)N1C (stereo partly drawn) [Example 6, 3-(Pyridyl-2-thio)-2-valine-cyclosporin] (HELM PEPTIDE1{[C/C=C/C[C@@H](C)[C@@H](O)[C@@H](C(=O)[*:2])N(C)[*:1]].V.[CN(C(Sc1ccccn1)C(=O)[*:2])[*:1]].[meL].V.[meL].A.[dA].[meL].[meL].[meV]}$PEPTIDE1,PEPTIDE1,1:R1-11:R2$$$V2.0) | 25 | 0.2 | 1 (≈ 0.754 µM) | – | – |
| C/C=C/C[C@@H](C)[C@@H](O)[C@H]1C(=O)N[C@@H](CC)C(=O)N(C)C(Sc2ccccn2)C(=O)N(C)[C@@H](CC(C)C)C(=O)N[C@@H](C(C)C)C(=O)N(C)[C@@H](CC(C)C)C(=O)N[C@@H](C)C(=O)N[C@H](CO)C(=O)N(C)[C@@H](CC(C)C)C(=O)N(C)[C@@H](CC(C)C)C(=O)N(C)[C@@H](C(C)C)C(=O)N1C (stereo partly drawn) [Example 7, 3-(Pyridyl-2-thio)-8-(D)-serine-cyclosporin] (HELM PEPTIDE1{[C/C=C/C[C@@H](C)[C@@H](O)[C@@H](C(=O)[*:2])N(C)[*:1]].[Abu].[CN(C(Sc1ccccn1)C(=O)[*:2])[*:1]].[meL].V.[meL].A.[dS].[meL].[meL].[meV]}$PEPTIDE1,PEPTIDE1,1:R1-11:R2$$$V2.0) | 25 | 0.2 | 1 (≈ 0.753 µM) | – | – |
| C/C=C/C[C@@H](C)[C@@H](O)[C@H]1C(=O)N[C@@H](CC)C(=O)N(C)C(Sc2ccccc2)C(=O)N(C)[C@@H](CC(C)C)C(=O)N[C@@H](C(C)C)C(=O)N(C)[C@@H](CC(C)C)C(=O)N[C@@H](C)C(=O)N[C@H](C)C(=O)N(C)[C@@H](CC(C)C)C(=O)N(C)[C@@H](CC(C)C)C(=O)N(C)[C@@H](C(C)C)C(=O)N1C (stereo partly drawn) [Example 8, 3-(Phenylthio)-cyclosporin A] (HELM PEPTIDE1{[C/C=C/C[C@@H](C)[C@@H](O)[C@@H](C(=O)[*:2])N(C)[*:1]].[Abu].[CN(C(Sc1ccccc1)C(=O)[*:2])[*:1]].[meL].V.[meL].A.[dA].[meL].[meL].[meV]}$PEPTIDE1,PEPTIDE1,1:R1-11:R2$$$V2.0) | 25 | 0.4 | 0.5 (≈ 0.381 µM) | – | – |
| C/C=C/C[C@@H](C)[C@@H](O)[C@H]1C(=O)N[C@@H](CC)C(=O)N(C)C(SCCN(C)C)C(=O)N(C)[C@@H](CC(C)C)C(=O)N[C@@H](C(C)C)C(=O)N(C)[C@@H](CC(C)C)C(=O)N[C@@H](C)C(=O)N[C@H](C)C(=O)N(C)[C@@H](CC(C)C)C(=O)N(C)[C@@H](CC(C)C)C(=O)N(C)[C@@H](C(C)C)C(=O)N1C (stereo partly drawn) [Example 9, 3-(2-dimethylaminoethylthio)-cyclosporin] | – | – | – | 0.03 (≈ 0.023 µM) | 0.1 |
| C/C=C/C[C@@H](C)[C@@H](OC(C)=O)[C@H]1C(=O)N[C@@H](CC)C(=O)N(C)C(OC(C)=O)C(=O)N(C)[C@@H](CC(C)C)C(=O)N[C@@H](C(C)C)C(=O)N(C)[C@@H](CC(C)C)C(=O)N[C@@H](C)C(=O)N[C@H](C)C(=O)N(C)[C@@H](CC(C)C)C(=O)N(C)[C@@H](CC(C)C)C(=O)N(C)[C@@H](C(C)C)C(=O)N1C (stereo partly drawn) [Example 12, 3′,3-Diacetoxy-cyclosporin] | 15 | 1.5 | 0.15 (≈ 0.115 µM) | – | – |
| C/C=C/C[C@@H](C)[C@@H](O)[C@H]1C(=O)N[C@@H](CC)C(=O)N(C)C(OC(C)=O)C(=O)N(C)[C@@H](CC(C)C)C(=O)N[C@@H](C(C)C)C(=O)N(C)[C@@H](CC(C)C)C(=O)N[C@@H](C)C(=O)N[C@H](C)C(=O)N(C)[C@@H](CC(C)C)C(=O)N(C)[C@@H](CC(C)C)C(=O)N(C)[C@@H](C(C)C)C(=O)N1C (stereo partly drawn) [Example 13, 3-Acetoxy-cyclosporin] | – | – | 0.15 (≈ 0.119 µM) | – | 1 |
| C/C=C/C[C@@H](C)[C@@H](O)[C@H]1C(=O)N[C@@H](CC)C(=O)N(C)C(OC)C(=O)N(C)[C@@H](CC(C)C)C(=O)N[C@@H](C(C)C)C(=O)N(C)[C@@H](CC(C)C)C(=O)N[C@@H](C)C(=O)N[C@H](C)C(=O)N(C)[C@@H](CC(C)C)C(=O)N(C)[C@@H](CC(C)C)C(=O)N(C)[C@@H](C(C)C)C(=O)N1C (stereo partly drawn) [Example 14, 3-Methoxycyclosporin] | 10 | – | – | – | 0.6 |
